PMC8895377, “In Vivo Targeting Replication Protein A for Cancer Therapy” (Frontiers in Oncology, 2022)
Read-outs that look alike come from different tables or passages of the source.

How the values were obtained:
60 cancer cell lines = assay: Cell viability in 60 cancer cell lines (CellTiter-Glo); assay type: cell-based; conditions: 72 h, most values, read-out: cellular IC50
Experimental: In this study, 90-µl cell suspensions were seeded in 96-well plates in respective culture medium with a final cell density of 4 × 10^3 cells/well and incubated overnight. Here, 10× solution of 329 (top working concentration: 40 µM of test article in media with 3.16-fold serial dilutions to achieve 9 dose levels) was prepared, and 10 µl of drug solution or culture medium containing 0.5% DMSO (vehicle control) was added to the plate (triplicate for each drug concentration). Plates were incubated for 72 h at 37°C with 5% CO2 and then measured by CellTiter-Glo assay (Promega). Briefly, plates were equilibrated at room temperature for 30 min, and 50 µl of CellTiter-Glo reagent was added to each well. Contents were mixed for 5 min on an orbital shaker to induce cell lysis, and plates were further incubated at room temperature for 20 min to stabilize the luminescent signal. Luminescence was recorded using EnVision Multi Plate Reader. Percent cell growth was calculated relative to DMSO-treated cells (vehicle control), and the data were fit using non-linear regression analysis (GraphPad PRISM) to calculate cellular IC50.
Figure 4 Cellular activity of 329 in 60 cancer cell lines. Cell lines were treated with a 4-log range of replication protein A inhibitor (RPAi) 329 for 72 h. Cell viability was assessed using CellTiter-Glo luminescent viability assay. […]

[1] = set-up: method as in PMID 32550990; conditions: cited from earlier work
[2] = target: T1, RPA–DNA interaction (purified full-length RPA) (Homo sapiens, UniProt P27694); assay: EMSA of RPA–DNA interaction inhibition; assay type: binding; conditions: 6.25, 12.5, 25, 50 µM RPAi
T1 construct: Purified full-length RPA (120 ng) was incubated with the indicated RPAi
T1 sequence (P27694 whole entry): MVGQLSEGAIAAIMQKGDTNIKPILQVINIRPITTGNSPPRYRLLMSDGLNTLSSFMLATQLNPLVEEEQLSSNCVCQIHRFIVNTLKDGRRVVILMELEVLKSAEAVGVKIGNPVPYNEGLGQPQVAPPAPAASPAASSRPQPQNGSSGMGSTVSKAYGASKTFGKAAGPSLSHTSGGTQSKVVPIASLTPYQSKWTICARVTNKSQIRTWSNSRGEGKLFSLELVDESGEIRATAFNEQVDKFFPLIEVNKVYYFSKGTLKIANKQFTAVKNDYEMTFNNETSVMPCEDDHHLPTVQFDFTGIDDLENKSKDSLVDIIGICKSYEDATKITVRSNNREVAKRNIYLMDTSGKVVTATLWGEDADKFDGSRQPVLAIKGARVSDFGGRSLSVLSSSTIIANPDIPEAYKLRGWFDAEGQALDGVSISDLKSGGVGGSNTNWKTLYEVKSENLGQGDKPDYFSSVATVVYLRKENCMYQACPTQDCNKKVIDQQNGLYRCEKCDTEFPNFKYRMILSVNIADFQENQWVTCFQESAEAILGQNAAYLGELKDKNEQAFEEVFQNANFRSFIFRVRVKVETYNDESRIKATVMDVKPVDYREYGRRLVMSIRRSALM
T1 sequence (P15927 whole entry partner): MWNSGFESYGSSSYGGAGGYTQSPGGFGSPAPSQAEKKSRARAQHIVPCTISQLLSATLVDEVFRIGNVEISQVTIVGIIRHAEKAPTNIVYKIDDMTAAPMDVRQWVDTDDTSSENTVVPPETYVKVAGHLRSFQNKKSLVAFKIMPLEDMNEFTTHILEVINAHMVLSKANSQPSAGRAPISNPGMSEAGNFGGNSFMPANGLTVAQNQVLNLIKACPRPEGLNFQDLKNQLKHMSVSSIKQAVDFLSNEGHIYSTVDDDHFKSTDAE
T1 sequence (P35244 whole entry partner): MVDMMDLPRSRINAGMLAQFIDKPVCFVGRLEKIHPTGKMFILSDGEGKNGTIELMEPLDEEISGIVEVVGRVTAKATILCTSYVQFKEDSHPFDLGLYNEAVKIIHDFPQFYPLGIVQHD
Experimental: (§1) EMSAs were performed as previously described ([9]). Briefly, reactions were conducted in 20 mM HEPES (pH 7.8), 1 mM DTT, 0.001% NP-40, and 50 mM NaCl. RPAis were suspended in 100% dimethlysulfoxide (DMSO), and DMSO concentration in the final reaction mixture was constant at less than 5%. Purified full-length RPA (120 ng) was incubated with the indicated RPAi or vehicle in reaction buffer for 30 min before the addition of the [^32]P-labeled 34-base ssDNA probe. Reactions were incubated for 5 min at room temperature, and products were separated via 6% native polyacrylamide gel electrophoresis. The bound and unbound fractions were quantified by phosphor-imager analysis using ImageQuant software (Molecular Dynamics, CA), and data were fit by non-linear regression using GraphPad Prism.
(§2) Figure 2 Replication protein A inhibitor (RPAi) inhibitory activity. (A) Chemical structure of RPAi’s 329 and 2004. (B) EMSA analysis of RPA–DNA interaction inhibition by 329 and 2004. Lanes 3–6 in each panel contain 6.25, 12.5, 25, and 50 µM of the indicated RPAi, respectively. The * indicates the position of the Escherichia coli SSB–single-stranded DNA (ssDNA) complex that serves as an internal specificity control. (C) Cell viability of H460 NSCLC cells in response to 329 and 2004.

[3] = Pharmacokinetics in mice (plasma, HPLC-MS/MS); assay type: in vivo; conditions: for AUC(0-inf): read-out: AUC 0-inf_obs; for k el: read-out: Lambda_z (converted); for MRT inf: read-out: MRT 0-inf_obs
Experimental: A method to quantify 329 from plasma has been developed using an internal standard, liquid–liquid extraction, and HPLC-MS/MS. Mouse plasma samples were prepared from treated mice at the indicated times frozen at -80°C until analysis. Plasma samples were thawed (20 µl) and transferred to polypropylene tubes, and the internal standard is added (20 µl of 0.1 ng/µl). Samples were diluted in 0.1 M phosphate buffer (pH = 7.4) and equal volume of methyl tertiary butyl ether. The samples were mixed and centrifuged at 12,000×g for 5 min, and the supernatant was transferred to a clean polypropylene tube. The solvent was evaporated to dryness, brought up in mobile phase analyzed by HPLC-MS/MS (ABSciex 4000). The mobile phase is delivered via gradient using acetonitrile and 0.1% formic acid on an Agilent Zorbax 300SB-C8 150 × 4.6 mm, 5-µm column. The mass spectrometer utilized an electrospray ionization probe run in positive mode. Multiple reaction monitoring was employed with Q1/Q3 (m/z) transitions for 329 at 718.2/128.1 and 687.3/128.1 for the internal standard. The lower limit of quantification is 0.1 ng/ml using 20 µl of plasma.
PK parameters were assessed in a series of studies in immunocompetent mice both IV and IP ( Figure 7B and Table 4 ). […] The half-life was also well within acceptable range (9 h).

[4] = target: Escherichia coli single strand binding protein (SSB) (Escherichia coli, UniProt P0AGE0); assay: EMSA internal specificity control, SSB–ssDNA complex; conditions: internal specificity control in EMSA
Escherichia coli single strand binding protein (SSB), sequence (P0AGE0 2-178): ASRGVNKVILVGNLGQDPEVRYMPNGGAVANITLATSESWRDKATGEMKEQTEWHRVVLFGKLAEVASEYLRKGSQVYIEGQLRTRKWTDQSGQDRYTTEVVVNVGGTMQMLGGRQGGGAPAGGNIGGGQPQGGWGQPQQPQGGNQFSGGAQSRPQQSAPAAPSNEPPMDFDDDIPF
Experimental: as §1, §2

[5] = IP, DMSO vehicle, 200 mg/kg, mice
[6] = IP, NMP vehicle, 20 mg/kg, mice
[7] = IP, NMP vehicle, 200 mg/kg, mice
[8] = mouse, plasma, ip, 20 mg/kg, IP, NMP vehicle, 20 mg/kg, mice
[9] = mouse, plasma, ip, 20 mg/kg, NMP vehicle, mice
[10] = mouse, plasma, ip, 200 mg/kg, DMSO vehicle, mice
[11] = mouse, plasma, ip, 200 mg/kg, IP, DMSO vehicle, 200 mg/kg, mice
[12] = mouse, plasma, ip, 200 mg/kg, IP, NMP vehicle, 200 mg/kg, mice
[13] = mouse, plasma, ip, 200 mg/kg, NMP vehicle, mice
[14] = mouse, plasma, iv, 2 mg/kg, IV, NMP vehicle, 2 mg/kg, mice
[15] = mouse, plasma, iv, 2 mg/kg, NMP vehicle, mice

SMILES: CCOc1ccc2cc(C3CC(c4ccc(I)cc4)=NN3C(=O)CCCC(=O)NCCCN3CCOCC3)c(Cl)nc2c1 (stereo not shown) [compound 329]
- IC50 (60 cancer cell lines): 5 to 10 µM
- solubility, cellular uptake, and physicochemical properties [1]: excellent
- RPA inhibitory activity (RPA–DNA interaction, EMSA) [2]: potent RPA inhibitory activity
- AUC and Cmax compared to 551 ([3]; DMSO/Tween formulation, data not shown): significant reduction in AUC and Cmax
- AUMC 0-inf_obs [3, 5]: 95023.52 ng/ml*h^2
- CI/F_obs [3, 5]: 0.0902 (mg/kg)/(ng/ml)/h
- Vz/F_obs [3, 5]: 4.015 (mg/kg)/(ng/ml)
- AUMC 0-inf_obs [3, 6]: 98489.24 ng/ml*h^2
- CI/F_obs [3, 6]: 0.0012 (mg/kg)/(ng/ml)/h
- Vz/F_obs [3, 6]: 0.011 (mg/kg)/(ng/ml)
- AUMC 0-inf_obs [3, 7]: 947545.56 ng/ml*h^2
- Vz/F_obs [3, 7]: 0.172 (mg/kg)/(ng/ml)
- AUMC 0-inf_obs ([3]; IV, NMP vehicle, 2 mg/kg, mice): 1897.83 ng/ml*h^2
- CI/F_obs ([3]; IV, NMP vehicle, 2 mg/kg, mice): 0.0014 (mg/kg)/(ng/ml)/h
- Vz/F_obs ([3]; IV, NMP vehicle, 2 mg/kg, mice): 0.007 (mg/kg)/(ng/ml)
- bioavailability ([3]; mouse, plasma, intraperitoneal, IP at 20 mg/kg versus IV dosing, read-out: absolute bioavailability): 84%
- AUC(0-inf) [3, 8]: 16500 ng·h/mL
- k el [3, 8]: 3.06e-05 s⁻¹
- MRT inf [3, 8]: 5.98 h
- half-life ([3]; mouse, plasma, ip, 20 mg/kg, IP, NMP vehicle, 20 mg/kg, mice, read-out: t1/2 (converted)): 6.3 h
- AUC(0-t) [3, 9]: 16400 ng·h/mL
- Cmax [3, 9]: 2510 ng/mL
- Tmax [3, 9]: 2 h
- AUC(0-t) [3, 10]: 968 ng·h/mL
- Cmax [3, 10]: 92.1 ng/mL
- Tmax [3, 10]: 0.25 h
- AUC(0-inf) [3, 11]: 2220 ng·h/mL
- k el [3, 11]: 5.56e-06 s⁻¹
- MRT inf [3, 11]: 42.8 h
- half-life ([3]; mouse, plasma, ip, 200 mg/kg, IP, DMSO vehicle, 200 mg/kg, mice, read-out: t1/2 (converted)): 30.9 h
- AUC(0-inf) [3, 12]: 64300 ng·h/mL
- k el [3, 12]: 1.94e-05 s⁻¹
- MRT inf [3, 12]: 14.7 h
- half-life ([3]; mouse, plasma, ip, 200 mg/kg, IP, NMP vehicle, 200 mg/kg, mice, read-out: t1/2 (converted)): 9.31 h
- half-life ([3]; mouse, plasma, ip, 200 mg/kg, IP, new formulation, 200 mg/kg, read-out: half-life (converted)): 9 h
- AUC(0-t) [3, 13]: 52000 ng·h/mL
- Cmax [3, 13]: 2910 ng/mL
- Tmax [3, 13]: 8 h
- AUC(0-inf) [3, 14]: 1410 ng·h/mL
- k el [3, 14]: 5.83e-05 s⁻¹
- MRT inf [3, 14]: 1.35 h
- half-life ([3]; mouse, plasma, iv, 2 mg/kg, IV, NMP vehicle, 2 mg/kg, mice, read-out: t1/2 (converted)): 3.28 h
- AUC(0-t) [3, 15]: 1400 ng·h/mL
- Cmax [3, 15]: 841 ng/mL
- Tmax [3, 15]: 0.5 h
- interaction of E. coli SSB with ssDNA [4]: not impacted
